By IC50 is commonly meant the concentration at which inhibition is half-maximal. For orientation: Ki means the dissociation constant of the complex between target and ligand, obtained from inhibition or displacement.

The target in one assay is T1, Aminopeptidase N (Plasmodium falciparum FcB1/Columbia, UniProt O96935).
T1 sequence (O96935 whole entry): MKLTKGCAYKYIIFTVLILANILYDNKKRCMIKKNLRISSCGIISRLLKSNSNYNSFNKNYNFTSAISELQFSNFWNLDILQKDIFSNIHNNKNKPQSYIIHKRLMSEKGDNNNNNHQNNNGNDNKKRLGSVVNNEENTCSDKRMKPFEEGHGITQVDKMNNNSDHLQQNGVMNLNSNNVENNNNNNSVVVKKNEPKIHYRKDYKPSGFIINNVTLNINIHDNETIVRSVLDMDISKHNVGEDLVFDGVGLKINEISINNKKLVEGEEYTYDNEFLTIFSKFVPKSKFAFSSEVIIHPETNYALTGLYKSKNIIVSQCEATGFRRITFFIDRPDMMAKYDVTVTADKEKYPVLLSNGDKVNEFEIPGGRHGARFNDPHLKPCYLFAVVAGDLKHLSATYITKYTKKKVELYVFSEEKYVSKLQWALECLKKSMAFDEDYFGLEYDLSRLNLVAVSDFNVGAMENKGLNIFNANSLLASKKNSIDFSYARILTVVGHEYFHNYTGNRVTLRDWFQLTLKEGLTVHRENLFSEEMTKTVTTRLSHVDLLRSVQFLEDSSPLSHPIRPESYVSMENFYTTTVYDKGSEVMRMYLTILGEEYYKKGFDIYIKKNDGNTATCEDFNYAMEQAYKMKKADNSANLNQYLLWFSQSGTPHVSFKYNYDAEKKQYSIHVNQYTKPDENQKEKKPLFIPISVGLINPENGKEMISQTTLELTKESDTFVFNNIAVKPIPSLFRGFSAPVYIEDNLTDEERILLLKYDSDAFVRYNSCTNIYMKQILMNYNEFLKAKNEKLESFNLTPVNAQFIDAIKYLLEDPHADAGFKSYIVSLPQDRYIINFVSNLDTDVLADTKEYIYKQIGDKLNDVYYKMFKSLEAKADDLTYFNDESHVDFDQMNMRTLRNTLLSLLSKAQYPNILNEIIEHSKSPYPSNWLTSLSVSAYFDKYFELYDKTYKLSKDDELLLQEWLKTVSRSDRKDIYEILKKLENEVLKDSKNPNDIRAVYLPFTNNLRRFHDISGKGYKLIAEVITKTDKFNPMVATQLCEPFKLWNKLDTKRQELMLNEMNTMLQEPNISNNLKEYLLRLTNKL
The experiment in a line: malaria alanyl aminopeptidase activity blockers – biochemical, fluorogenic H-Leu-NHMec substrate, 1536-well (AID 1445). Set-up: species or system Plasmodium falciparum 3D7, 3D7.

The target in assay [1] is T2, Apoptotic protease-activating factor 1 (Homo sapiens, UniProt O14727).
T2 sequence (O14727 whole entry): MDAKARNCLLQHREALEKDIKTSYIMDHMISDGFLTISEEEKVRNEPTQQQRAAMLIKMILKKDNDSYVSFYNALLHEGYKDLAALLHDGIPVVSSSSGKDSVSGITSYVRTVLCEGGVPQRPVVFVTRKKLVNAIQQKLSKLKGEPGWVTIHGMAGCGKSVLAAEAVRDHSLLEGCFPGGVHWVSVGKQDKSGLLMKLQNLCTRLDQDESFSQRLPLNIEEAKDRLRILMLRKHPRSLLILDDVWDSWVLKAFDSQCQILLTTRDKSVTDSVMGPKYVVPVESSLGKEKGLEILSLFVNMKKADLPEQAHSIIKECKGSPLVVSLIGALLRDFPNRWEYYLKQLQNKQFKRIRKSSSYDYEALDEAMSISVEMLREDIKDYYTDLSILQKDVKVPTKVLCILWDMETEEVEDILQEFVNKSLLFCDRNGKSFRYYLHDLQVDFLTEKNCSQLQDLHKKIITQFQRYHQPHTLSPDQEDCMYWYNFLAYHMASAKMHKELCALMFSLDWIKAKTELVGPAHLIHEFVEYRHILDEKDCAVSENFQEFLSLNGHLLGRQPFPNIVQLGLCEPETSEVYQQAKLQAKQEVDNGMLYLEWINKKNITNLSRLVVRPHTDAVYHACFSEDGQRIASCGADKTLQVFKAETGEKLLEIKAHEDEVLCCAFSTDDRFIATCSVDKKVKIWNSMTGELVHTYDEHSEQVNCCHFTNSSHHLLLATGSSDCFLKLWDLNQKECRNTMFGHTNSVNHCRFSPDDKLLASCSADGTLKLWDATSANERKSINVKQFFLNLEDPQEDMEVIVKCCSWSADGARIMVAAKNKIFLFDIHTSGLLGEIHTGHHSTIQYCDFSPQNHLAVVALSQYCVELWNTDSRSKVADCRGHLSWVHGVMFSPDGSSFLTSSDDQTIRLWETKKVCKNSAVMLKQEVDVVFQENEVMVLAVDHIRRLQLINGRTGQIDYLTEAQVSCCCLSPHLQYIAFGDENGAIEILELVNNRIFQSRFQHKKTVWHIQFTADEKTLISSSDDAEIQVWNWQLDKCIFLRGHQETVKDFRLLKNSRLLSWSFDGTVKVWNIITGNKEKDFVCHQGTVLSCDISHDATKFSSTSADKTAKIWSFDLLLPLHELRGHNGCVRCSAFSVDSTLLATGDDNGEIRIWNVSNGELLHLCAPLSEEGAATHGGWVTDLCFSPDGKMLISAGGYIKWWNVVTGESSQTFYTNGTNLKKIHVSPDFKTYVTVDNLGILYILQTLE
The class given is functional.

Assay [2] addresses Serine/threonine-protein kinase TBK1 (Homo sapiens, UniProt Q9UHD2). In words: Navigating the Kinome. Panel member name: TBK1. The class given is functional.
Assay [3] concerns the target Tyrosine-protein kinase receptor TYRO3 (Homo sapiens, UniProt Q06418). The class given is functional.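 Also: TYRO3 value obtained as one member of a kinome-wide profiling panel.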
The target in another assay is Activin receptor type-1 (Homo sapiens, UniProt Q04771). The experiment in a line: Navigating the Kinome. Panel member name: ACVR1. The class given is functional.
The target in assay [4] is Serine/threonine-protein kinase TAO1 (Homo sapiens, UniProt Q7L7X3). The class given is functional.
For assay [5], the target named is Testis-specific serine/threonine-protein kinase 1 (Homo sapiens, UniProt Q9BXA7). The class given is functional.
Assay [6] deals with MAP/microtubule affinity-regulating kinase 3 (Homo sapiens, UniProt P27448). The class given is functional.
Assay [7] deals with Protein kinase C gamma type (Homo sapiens, UniProt P05129). The class given is functional.
Assay [8] concerns the target Dual specificity tyrosine-phosphorylation-regulated kinase 3 (Homo sapiens, UniProt O43781). The class given is functional.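 Also: measured as one member of a broad kinase panel.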
The target of assay [9] is Serine/threonine-protein kinase pim-2 (Homo sapiens, UniProt Q9P1W9). The class given is functional.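 Also: value comes from a broad kinase panel profiling study in which PIM2 was one of the panel members.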
Assay [10] concerns the target Vascular endothelial growth factor receptor 1 (Homo sapiens, UniProt P17948). The class given is functional.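 Also: measured within a kinome-wide profiling panel, FLT1 as the panel member.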
Assay [11] addresses Macrophage colony-stimulating factor 1 receptor (Homo sapiens, UniProt P07333). The class given is functional.
In assay [12] the target is Serine/threonine-protein kinase 3 (Homo sapiens, UniProt Q13188). The class given is functional.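 Also: measured as one member of a kinome-wide kinase panel.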

Calls of active or inactive are those of the source.

Sequence of Testis-specific serine/threonine-protein kinase 1 (Q9BXA7 whole entry): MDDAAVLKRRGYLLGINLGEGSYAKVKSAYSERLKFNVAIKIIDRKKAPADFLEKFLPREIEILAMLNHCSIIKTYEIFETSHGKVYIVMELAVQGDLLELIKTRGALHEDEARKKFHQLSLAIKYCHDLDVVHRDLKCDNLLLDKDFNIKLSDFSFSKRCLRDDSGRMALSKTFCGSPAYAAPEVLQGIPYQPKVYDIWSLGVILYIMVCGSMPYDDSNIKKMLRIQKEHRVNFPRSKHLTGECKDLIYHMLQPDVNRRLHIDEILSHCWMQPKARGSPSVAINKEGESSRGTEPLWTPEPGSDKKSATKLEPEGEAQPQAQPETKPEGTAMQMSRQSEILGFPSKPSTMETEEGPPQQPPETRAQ
Sequence of Dual specificity tyrosine-phosphorylation-regulated kinase 3 (O43781 whole entry): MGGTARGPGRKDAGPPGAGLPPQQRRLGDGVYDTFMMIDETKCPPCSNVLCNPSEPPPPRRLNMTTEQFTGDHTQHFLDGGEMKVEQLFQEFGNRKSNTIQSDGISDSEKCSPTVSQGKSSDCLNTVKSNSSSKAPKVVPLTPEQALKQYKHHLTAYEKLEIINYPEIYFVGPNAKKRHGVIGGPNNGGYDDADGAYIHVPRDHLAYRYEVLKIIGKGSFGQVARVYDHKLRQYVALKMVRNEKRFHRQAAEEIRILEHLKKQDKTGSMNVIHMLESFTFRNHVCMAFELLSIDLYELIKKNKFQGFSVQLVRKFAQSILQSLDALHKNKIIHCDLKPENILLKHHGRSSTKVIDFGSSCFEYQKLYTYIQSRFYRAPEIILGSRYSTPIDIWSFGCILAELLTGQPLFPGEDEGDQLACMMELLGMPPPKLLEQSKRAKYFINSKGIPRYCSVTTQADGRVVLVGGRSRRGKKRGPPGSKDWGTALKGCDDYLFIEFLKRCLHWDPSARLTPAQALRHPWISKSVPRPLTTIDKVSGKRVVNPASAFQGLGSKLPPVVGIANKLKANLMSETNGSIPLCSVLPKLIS
Sequence of Serine/threonine-protein kinase TBK1 (Q9UHD2 whole entry): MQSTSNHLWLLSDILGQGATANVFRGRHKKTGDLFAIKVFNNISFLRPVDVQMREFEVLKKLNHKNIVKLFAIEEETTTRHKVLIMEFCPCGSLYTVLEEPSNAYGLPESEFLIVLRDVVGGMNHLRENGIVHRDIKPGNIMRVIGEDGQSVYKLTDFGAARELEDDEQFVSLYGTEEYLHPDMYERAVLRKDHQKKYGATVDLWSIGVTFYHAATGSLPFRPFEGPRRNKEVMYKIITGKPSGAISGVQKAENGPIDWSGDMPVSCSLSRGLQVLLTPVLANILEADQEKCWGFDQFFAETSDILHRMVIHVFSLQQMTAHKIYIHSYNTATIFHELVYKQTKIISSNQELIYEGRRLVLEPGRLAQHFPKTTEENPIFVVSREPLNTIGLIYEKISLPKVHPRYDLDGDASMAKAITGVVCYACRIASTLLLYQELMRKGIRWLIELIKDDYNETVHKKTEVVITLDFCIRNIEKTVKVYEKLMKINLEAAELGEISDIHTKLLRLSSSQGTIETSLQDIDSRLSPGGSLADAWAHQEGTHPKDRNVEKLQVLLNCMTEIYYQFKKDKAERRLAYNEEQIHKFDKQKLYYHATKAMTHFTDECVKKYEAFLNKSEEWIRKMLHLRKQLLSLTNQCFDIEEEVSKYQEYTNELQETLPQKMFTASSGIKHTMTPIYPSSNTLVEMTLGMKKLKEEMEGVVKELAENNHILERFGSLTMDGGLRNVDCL
Sequence of Serine/threonine-protein kinase TAO1 (Q7L7X3 whole entry): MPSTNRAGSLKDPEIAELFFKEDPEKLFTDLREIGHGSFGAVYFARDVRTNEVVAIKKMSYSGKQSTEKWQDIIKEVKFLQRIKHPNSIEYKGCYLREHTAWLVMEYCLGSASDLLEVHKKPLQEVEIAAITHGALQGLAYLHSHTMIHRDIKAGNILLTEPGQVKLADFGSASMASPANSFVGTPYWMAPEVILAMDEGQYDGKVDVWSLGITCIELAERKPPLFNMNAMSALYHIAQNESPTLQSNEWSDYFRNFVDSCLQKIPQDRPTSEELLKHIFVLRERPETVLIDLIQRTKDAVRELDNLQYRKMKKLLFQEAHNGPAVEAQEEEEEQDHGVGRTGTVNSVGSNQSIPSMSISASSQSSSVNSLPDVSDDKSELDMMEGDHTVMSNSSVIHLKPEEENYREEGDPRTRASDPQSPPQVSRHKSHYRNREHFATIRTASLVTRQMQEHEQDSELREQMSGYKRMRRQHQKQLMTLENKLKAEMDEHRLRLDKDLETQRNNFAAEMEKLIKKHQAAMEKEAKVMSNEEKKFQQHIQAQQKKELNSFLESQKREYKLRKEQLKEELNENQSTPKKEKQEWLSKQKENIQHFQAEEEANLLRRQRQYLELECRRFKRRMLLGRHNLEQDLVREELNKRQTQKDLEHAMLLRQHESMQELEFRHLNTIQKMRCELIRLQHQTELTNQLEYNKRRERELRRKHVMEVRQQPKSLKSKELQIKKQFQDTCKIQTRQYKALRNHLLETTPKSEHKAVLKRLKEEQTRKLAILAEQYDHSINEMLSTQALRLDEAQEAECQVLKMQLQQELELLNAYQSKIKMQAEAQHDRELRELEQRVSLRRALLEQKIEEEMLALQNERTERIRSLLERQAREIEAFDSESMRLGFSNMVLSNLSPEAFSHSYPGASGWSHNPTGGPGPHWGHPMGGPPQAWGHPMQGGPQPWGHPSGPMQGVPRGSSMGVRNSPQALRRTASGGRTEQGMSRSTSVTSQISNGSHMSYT
Sequence of Macrophage colony-stimulating factor 1 receptor (P07333 whole entry): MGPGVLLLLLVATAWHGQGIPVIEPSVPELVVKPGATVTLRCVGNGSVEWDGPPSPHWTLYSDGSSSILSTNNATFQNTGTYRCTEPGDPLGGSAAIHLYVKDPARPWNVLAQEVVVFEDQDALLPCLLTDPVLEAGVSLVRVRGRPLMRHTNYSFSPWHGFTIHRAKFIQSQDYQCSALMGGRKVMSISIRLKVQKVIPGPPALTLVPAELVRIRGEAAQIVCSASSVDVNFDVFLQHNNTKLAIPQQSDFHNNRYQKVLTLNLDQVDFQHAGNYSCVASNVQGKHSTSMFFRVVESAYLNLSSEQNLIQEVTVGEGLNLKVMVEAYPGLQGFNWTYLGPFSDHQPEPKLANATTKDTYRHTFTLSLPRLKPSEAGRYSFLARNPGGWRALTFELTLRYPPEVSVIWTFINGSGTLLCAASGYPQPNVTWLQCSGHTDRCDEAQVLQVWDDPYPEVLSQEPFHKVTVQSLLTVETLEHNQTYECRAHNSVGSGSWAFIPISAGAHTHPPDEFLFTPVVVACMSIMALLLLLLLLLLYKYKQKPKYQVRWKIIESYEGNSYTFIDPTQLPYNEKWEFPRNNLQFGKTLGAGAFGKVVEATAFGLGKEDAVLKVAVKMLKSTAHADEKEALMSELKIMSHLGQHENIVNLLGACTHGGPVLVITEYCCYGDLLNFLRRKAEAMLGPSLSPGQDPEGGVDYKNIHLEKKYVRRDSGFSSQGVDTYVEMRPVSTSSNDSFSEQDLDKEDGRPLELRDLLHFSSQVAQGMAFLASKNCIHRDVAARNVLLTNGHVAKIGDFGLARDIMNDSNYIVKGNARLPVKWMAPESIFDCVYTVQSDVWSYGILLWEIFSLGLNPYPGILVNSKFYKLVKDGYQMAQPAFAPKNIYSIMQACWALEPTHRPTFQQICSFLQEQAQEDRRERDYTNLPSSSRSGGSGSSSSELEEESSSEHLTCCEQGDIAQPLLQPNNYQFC
Sequence of Serine/threonine-protein kinase 3 (Q13188 whole entry): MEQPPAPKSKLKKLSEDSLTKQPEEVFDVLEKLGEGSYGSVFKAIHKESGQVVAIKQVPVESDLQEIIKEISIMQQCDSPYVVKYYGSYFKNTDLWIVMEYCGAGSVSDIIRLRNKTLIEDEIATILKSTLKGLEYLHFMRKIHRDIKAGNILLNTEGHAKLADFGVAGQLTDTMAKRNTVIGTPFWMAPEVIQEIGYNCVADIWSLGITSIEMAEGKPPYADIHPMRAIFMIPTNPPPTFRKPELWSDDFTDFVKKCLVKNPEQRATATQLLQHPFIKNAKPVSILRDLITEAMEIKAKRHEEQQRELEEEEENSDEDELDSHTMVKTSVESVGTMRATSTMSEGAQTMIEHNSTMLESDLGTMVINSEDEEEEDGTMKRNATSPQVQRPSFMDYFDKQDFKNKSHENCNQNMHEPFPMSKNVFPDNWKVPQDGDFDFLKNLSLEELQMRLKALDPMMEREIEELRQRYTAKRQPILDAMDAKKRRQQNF

`CS(=O)(=O)c1ccc2c(c1)SC1=NC(=O)/C(=C/c3ccc(O)c(O)c3)C(=N)N12`: at Aminopeptidase N, the IC50 was 51.2 µM (active).

Turning to `CCOC(=O)C(C(=O)OCC)c1cc(Br)c2noc3c2c1C(=O)c1ccccc1-3`, in assay [1], the IC50 was 47.7 µM (active).

For the compound `COc1ccc(C(=O)Nc2n[nH]c3ccc(-c4cn(Cc5ccccc5)nn4)cc23)cc1OC`, the Ki in assay [2] is 0.0251 µM (active); in assay [3] it was > 2 µM (inactive); at Activin receptor type-1 it was 1 µM (active); in [4], 5.01 µM (active); in [5], > 1.58 µM (inactive); in assay [6], 0.0631 µM (active). Moreover, the Ki in assay [7] was 0.126 µM (active); in assay [8], 0.631 µM (active); in assay [9], > 2.51 µM (inactive); in [10], 0.2 µM (active); in assay [11], > 1.58 µM (inactive); in assay [12] it was 0.794 µM (active).

For the origin of these results see ChEMBL document CHEMBL1201862, “PubChem BioAssay data set” (2004).
